# From PubChem BioAssay (NCI)
#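 Results reflect a 48-hour exposure of cells in 96-well plates to compound at five concentrations. GI50 marks 50% less growth. TGI: concentration producing complete growth inhibition.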
# Experiments:
# Assay in all cases: DTP human tumour cell line panel, 48 h
# [1] = test system: HT29 colon
# [2] = test system: IGROV1 ovarian
# [3] = test system: CCRF-CEM leukemia
# [4] = test system: 786-0 renal
# [5] = test system: HL-60(TB) leukemia
# [6] = test system: COLO 205 colon
# [7] = test system: MALME-3M melanoma
# [8] = test system: OVCAR-3 ovarian
# [9] = test system: SF-539 CNS
# [10] = test system: SK-OV-3 ovarian
# [11] = test system: SK-MEL-2 melanoma
# [12] = test system: NCI-H522 lung
# [13] = test system: HOP-62 NSCLC
# [14] = test system: SR leukemia
# [15] = test system: SK-MEL-28 melanoma
# [16] = test system: MDA-MB-231 breast
# [17] = test system: SN12C renal
# [18] = test system: SF-268 CNS
# [19] = test system: K-562 leukemia
# [20] = test system: HS 578T breast
# [21] = test system: UACC-257 melanoma
# [22] = test system: T-47D breast
# [23] = test system: LOX IMVI melanoma
# [24] = test system: SW-620 colon
# [25] = test system: UACC-62 melanoma
# [26] = test system: MOLT-4 leukemia
# [27] = test system: MCF7 breast
# [28] = test system: RPMI-8226 leukemia
compound,measurement,setting,value
CNCCNc1nc2ccccc2c2c(=O)c3cc(F)ccc3sc12,GI50,[1],1590 nM
same,TGI,[1],3200 nM
same,GI50,[2],1750 nM
same,TGI,[2],3340 nM
same,GI50,[3],1680 nM
same,TGI,[3],3360 nM
same,GI50,[4],1590 nM
same,TGI,[4],3090 nM
same,GI50,[5],1890 nM
same,TGI,[5],3660 nM
same,GI50,[6],1670 nM
same,TGI,[6],3360 nM
same,GI50,[7],1670 nM
same,TGI,[7],3100 nM
same,GI50,[8],1700 nM
same,TGI,[8],3250 nM
same,GI50,[9],1710 nM
same,TGI,[9],3130 nM
same,GI50,[10],2130 nM
same,TGI,[10],7580 nM
same,GI50,[11],1760 nM
same,TGI,[11],3450 nM
same,GI50,[12],1660 nM
same,TGI,[12],3420 nM
same,GI50,[13],1480 nM
same,TGI,[13],3210 nM
same,GI50,[14],1830 nM
same,TGI,[14],4310 nM
same,GI50,[15],1850 nM
same,TGI,[15],3380 nM
same,GI50,[16],1610 nM
same,TGI,[16],3180 nM
same,GI50,[17],1610 nM
same,TGI,[17],3290 nM
same,GI50,[18],1690 nM
same,TGI,[18],4170 nM
same,GI50,[19],1640 nM
same,TGI,[19],4350 nM
same,GI50,[20],2000 nM
same,TGI,[20],4790 nM
same,GI50,[21],1730 nM
same,TGI,[21],3250 nM
same,GI50,[22],1800 nM
same,TGI,[22],4120 nM
same,GI50,[23],1570 nM
same,TGI,[23],2980 nM
same,GI50,[24],1660 nM
same,TGI,[24],3240 nM
same,GI50,[25],1730 nM
same,TGI,[25],3180 nM
same,GI50,[26],1720 nM
same,TGI,[26],3500 nM
same,GI50,[27],1670 nM
same,TGI,[27],3310 nM
same,GI50,[28],1910 nM
same,TGI,[28],4030 nM
